The source made the active and inactive calls. The calls are words filed in the database; no cut-off is given here.
Experiments:
SW1990 [1] = assay: Induction of cell cycle arrest at G0/G1 phase in human SW1990 cells at 0.5 uM incubated for 6 days by PI staining based flow cytometry (reference value: 49.65 %); type: functional; conditions: time 6 day
SW1990 [2] = assay: Induction of cell cycle arrest at G0/G1 phase in human SW1990 cells at 1 uM incubated for 6 days by PI staining based flow cytometry (reference value: 49.65 %); type: functional; conditions: time 6 day
[3] = biological target: T1, Serine/threonine-protein kinase DCLK1 (Homo sapiens) (UniProt O15075); assay: Inhibition of DCLK1 (unknown origin) at 200 nM preincubated for 10 mins followed by substrate/ATP addition measured after 60 mins by mobility shift assay relative to control; conditions: time 70.0 min
T1 sequence (whole entry): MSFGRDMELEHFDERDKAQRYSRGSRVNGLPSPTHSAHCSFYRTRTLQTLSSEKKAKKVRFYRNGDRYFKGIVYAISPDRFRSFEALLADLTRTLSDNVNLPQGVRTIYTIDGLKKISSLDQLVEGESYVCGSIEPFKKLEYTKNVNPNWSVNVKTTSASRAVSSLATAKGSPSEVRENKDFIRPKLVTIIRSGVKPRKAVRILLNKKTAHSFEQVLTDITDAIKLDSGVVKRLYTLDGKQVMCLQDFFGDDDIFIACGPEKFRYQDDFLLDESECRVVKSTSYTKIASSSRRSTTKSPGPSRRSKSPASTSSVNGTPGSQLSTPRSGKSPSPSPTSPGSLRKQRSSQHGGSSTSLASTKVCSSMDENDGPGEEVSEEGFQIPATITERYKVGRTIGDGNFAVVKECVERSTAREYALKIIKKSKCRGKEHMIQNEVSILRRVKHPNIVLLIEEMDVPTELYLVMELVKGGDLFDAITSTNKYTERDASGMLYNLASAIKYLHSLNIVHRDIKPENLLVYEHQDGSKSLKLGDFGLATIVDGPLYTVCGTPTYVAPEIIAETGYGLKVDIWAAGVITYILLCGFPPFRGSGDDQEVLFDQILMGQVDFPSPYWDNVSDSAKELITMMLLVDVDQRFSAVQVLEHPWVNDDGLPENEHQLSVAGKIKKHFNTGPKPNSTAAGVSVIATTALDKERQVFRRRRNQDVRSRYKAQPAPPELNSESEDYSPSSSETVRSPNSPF

SW1990 [4] = assay: Induction of apoptosis in human SW1990 cells assessed as necrotic cells at 1 uM incubated for 6 days by Annexin V/PI staining based flow cytometry (reference value: 0.50 %); type: functional; conditions: time 6 day
SW1990 [5] = assay: Induction of apoptosis in human SW1990 cells assessed as late apoptotic cells at 1 uM incubated for 6 days by Annexin V/PI staining based flow cytometry (reference value: 2.01 %); type: functional; conditions: time 6 day
SW1990 [6] = assay: Downregulation of Snail level in human SW1990 cells at 0.5 to 2 uM by Western blot analysis; type: functional, cell-based; conditions: dose 0.5-2 µM
SW1990 [7] = assay: Induction of cell cycle arrest at G2/M phase in human SW1990 cells at 2 uM incubated for 6 days by PI staining based flow cytometry (reference value: 29.15 %); type: functional; conditions: time 6 day
SW1990 [8] = assay: Antitumor activity against human SW1990 cells xenografted in BALB/c nude mouse model assessed as decrease in N-cadherin level at 30 to 60 mg/kg, ip for 21 days consecutively by Western blot analysis; type: functional, organism-based; conditions: dose 30-60 mg/kg, time 21.0 day
HCT-116 = assay: Antiproliferative activity against human HCT-116 cells assessed as inhibition cell proliferation incubated for 6 days by MTT assay; type: functional, cell-based; conditions: HCT-116, 144 h
[9] = Toxicity in BALB/c nude mouse xenografted with human SW1990 cells assessed as drug tolerance at 30 to 60 mg/kg, ip for 21 days consecutively; type: organism-based; conditions: in vivo, 504 h, dose 30-60 mg/kg, time 21 day
SW1990 [10] = assay: Antiproliferative activity against human SW1990 cells assessed as inhibition cell proliferation incubated for 6 days by MTT assay; type: functional, cell-based; conditions: SW1990, 144 h
SW1990 [11] = assay: Antitumor activity against human SW1990 cells xenografted in BALB/c nude mouse model assessed as decrease in CD44 level at 30 to 60 mg/kg, ip for 21 days consecutively by IHC analysis; type: functional, organism-based; conditions: dose 30-60 mg/kg, time 21.0 day
SW1990 [12] = assay: Inhibition of cell migration in human SW1990 cells at 0.5 to 2 uM by transwell assay; type: functional, cell-based; conditions: dose 0.5-2 µM
SW1990 [13] = assay: Antitumor activity against human SW1990 cells xenografted in BALB/c nude mouse model assessed as change in cell contraction treated intraperitoneally for 21 days consecutively by H and E staining based analysis; type: functional; conditions: dose 30-60 mg/kg, route ip, time 21.0 day
CAKI-1 = assay: Antiproliferative activity against human CAKI-1 cells assessed as inhibition cell proliferation incubated for 6 days by MTT assay; type: functional, cell-based; conditions: CAKI-1, 144 h
SW1990 [14] = assay: Induction of apoptosis in human SW1990 cells assessed as late apoptotic cells at 2 uM incubated for 6 days by Annexin V/PI staining based flow cytometry (reference value: 2.01 %); type: functional; conditions: time 6 day
SW1990 [15] = assay: Induction of cell cycle arrest at G0/G1 phase in human SW1990 cells at 2 uM incubated for 6 days by PI staining based flow cytometry (reference value: 49.65 %); type: functional; conditions: time 6 day
SW1990 [16] = assay: Downregulation of N-cadherin level in human SW1990 cells at 0.5 to 2 uM by Western blot analysis; type: functional, cell-based; conditions: dose 0.5-2 µM
[17] = Toxicity in BALB/c nude mouse xenografted with human SW1990 cells assessed as change in body weight at 30 to 60 mg/kg, ip for 21 days consecutively; type: organism-based; conditions: in vivo, 504 h, dose 30-60 mg/kg, time 21 day
SW1990 [18] = assay: Antitumor activity against human SW1990 cells xenografted in BALB/c nude mouse model assessed as decrease in Snail level at 30 to 60 mg/kg, ip for 21 days consecutively by Western blot analysis; type: functional, organism-based; conditions: dose 30-60 mg/kg, time 21.0 day
SW1990 [19] = assay: Upregulation of E-cadherin level in human SW1990 cells at 0.5 to 2 uM by Western blot analysis; type: functional, cell-based; conditions: dose 0.5-2 µM
SW1990 [20] = assay: Antitumor activity against human SW1990 cells xenografted in BALB/c nude mouse model assessed as change in agglutination treated intraperitoneally for 21 days consecutively by H and E staining based analysis; type: functional; conditions: dose 30-60 mg/kg, route ip, time 21.0 day
SW1990 [21] = assay: Antitumor activity against human SW1990 cells xenografted in BALB/c nude mouse model assessed as decrease in CD133 level at 30 to 60 mg/kg, ip for 21 days consecutively by IHC analysis; type: functional, organism-based; conditions: dose 30-60 mg/kg, time 21.0 day
SW1990 [22] = assay: Induction of apoptosis in human SW1990 cells assessed as early apoptotic cells at 2 uM incubated for 6 days by Annexin V/PI staining based flow cytometry (reference value: 4.55 %); type: functional; conditions: time 6 day
SW1990 [23] = assay: Antitumor activity in human SW1990 cells assessed as decrease in CD133 level at 0.5 to 2 uM by immunofluorescence based analysis; type: functional, cell-based; conditions: dose 0.5-2 µM

With COc1cc(N2CCN(C)CC2)ccc1Nc1nc(Nc2ccccc2S(=O)(=O)C(C)C)c2nc[nH]c2n1 the Activity (SW1990 [1]) was 52.79%, the Activity (SW1990 [2]) was 56.78% and the inhibition [3] was 29.8%. For the same molecule, the Activity (SW1990 [4]) was 8.2%, the Activity (SW1990 [5]) was 7.06% and the Activity (SW1990 [6]) was “Active”. The Activity (SW1990 [7]) was 22.63%, the Activity (SW1990 [8]) was “Active” and the IC50 (HCT-116) was 3000 nM. The Activity [9] was “Non-Toxic”, the IC50 (SW1990 [10]) was 600 nM and the Activity (SW1990 [11]) was “Active”. The inhibition (SW1990 [12]) was “Active”, the Activity (SW1990 [13]) was “Dose-Dependent Effect” and the IC50 (CAKI-1) was 10100 nM. For the same molecule, the Activity (SW1990 [14]) was 11.39%, the Activity (SW1990 [15]) was 63.14% and the Activity (SW1990 [16]) was “Active”. For the same molecule, the Activity [17] was “Toxic”, the Activity (SW1990 [18]) was “Active” and the Activity (SW1990 [19]) was “Active”. For the same molecule, the Activity (SW1990 [20]) was “Dose-Dependent Effect”, the Activity (SW1990 [21]) was “Active” and the Activity (SW1990 [22]) was 21.76%. The Activity (SW1990 [23]) was “Active”.
